Read-outs that look alike come from different tables or passages of the source.
Tests used:
[1] = system: LL2 cells; experiment: qRTPCR of IFN related genes in Lewis lung carcinoma (LL2) cells in vitro (Example 4); format: cell-based, mouse
Method: (§1) 4T1 cells (ATCC, CRL-2539) were cultured in RPMI-1640 (Sigma, Cat. #R8758) supplemented with 10% fetal bovine serum (FBS), L-glutamine (4 mM), streptomycin (5 μg/ml) and penicillin (5 U/ml). […] Lewis lung carcinoma cells LL/2 (LLC1) (ATCC, CRL-1642™) were cultured in Dulbecco's Modified Eagle's Medium ATCC® 30-2002™ (4 mM L-glutamine, 4500 mg/L glucose, 1 mM sodium pyruvate, and 1500 mg/L sodium bicarbonate).
RNA was extracted from snap frozen tumors using the RNEasy Microarray Tissue Mini kit from Qiagen following the manufacturer's instructions. As tumors contained Doxorubicin and powderizing them could expose personnel to harmful substances, the RNA was extracted in a closed system using the GentleMACS dissociator and M Tubes. Purity and concentration of RNA was measured using Nanodrop. RT^2 Profiler™ PCR Array. cDNA was synthesized from RNA using the RT^2 First Strand kit (Qiagen) according to the manufacturer's instructions. cDNA was mixed with RT^2 SYBR Green Mastermix (Qiagen) and loaded into RT^2 Profiler™ PCR Array Mouse Type I Interferon Response or RT^2 Profiler™ PCR Array Mouse Epithelial to Mesenchymal Transition (EMT), analyzing the expression of the genes listed in Table 17. The plates were analyzed using Light Cycler 480 (Roche) and data were analyzed using the Qiagen Data Analysis Centre and Graph Pad (Prism).
Chemotherapeutic agents commonly used to treat lung cancer patients were evaluated for effects on the IFN response. Cisplatin, navelbine and docetaxel were tested in vitro in combination with bemcentinib.
(§2) The IC50 of the different drugs were calculated by resazurin viability assay. […] The cells were treated for 48 hours.

[2] = system: LL2 cells; experiment: Resazurin viability assay of LL2 cells (Example 4); format: cell-based, mouse
Method: as §1, §2

[3] = system: type I IFN related genes (ISG); experiment: RT2 Profiler PCR Array Mouse Type I Interferon Response on 4T1 tumors (Example 2); format: in vivo, Balb/c mice
Excerpt: Bemcentinib was given as a loading dose for 3 days (11-13 after tumor implantation) and then as a standard dose until sacrifice.
9 mice have been excluded of the study because of the absence of tumor on day 11. On day 11 post implantation half of the cages were placed in the bemcentinib treated group and the other half in the […]. The average tumor volume when bemcentinib treatment was initiated (day 11) was 54.99 mm^3. […] The tumor volumes when bemcentinib treatment was initiated and the day of randomization are recorded in table 8. The intra tumomoral injection of doxorubicin and sting agonists was adjusted to the tumor volume.
Doxorubicin is provided in a 2 mg/ml solution. As it is technically challenging to inject 50 ul liquid into tumors measuring <100 mm^3, the total dosing volume was calculated based on the following formula: V=50 ul×(TV/120). This is done to minimize variability due to leakage during intratumoral injection. For the 1 mg/kg dose (E,F) Doxorubicin was given at a concentration of 0.5 mg/ml, which corresponds to 1 mg/kg for a 25 g mouse with a tumor of 120 mm^3, and 1 mg/kg for a 20 g mouse with a tumor of 100 mm^3. For 3 mg/kg dose (G,H), a solution of 1.5 mg/ml was used and same volumes was injected. For the 6 mg/kg dose (I,J) the commercial solution of 2 mg/ml will be used and 75 ul was injected for tumor with a volume of 120 mm^3.
The same formula as for doxorubicin was used V=50 ul×(TV/120).
RNA was extracted from […] snap frozen tumors using the RNEasy Microarray Tissue Mini kit from Qiagen following the manufacturer's instructions. As tumors contained Doxorubicin and powderizing them could expose personnel to harmful substances, the RNA was extracted in a closed system using the GentleMACS dissociator and M Tubes. Purity and concentration of RNA was measured using Nanodrop. cDNA was synthesized from RNA using the RT^2 First Strand kit (Qiagen) according to the manufacturer's instructions. cDNA was mixed with RT^2 SYBR Green Mastermix (Qiagen) and loaded into RT Profiler™ PCR Array Mouse Type I Interferon Response or RT^2 Profiler™ PCR Array Mouse Epithelial to Mesenchymal Transition (EMT), analyzing the expression of 84 genes listed in Tables 9 and 10. The plates were analyzed using Light Cycler 480 (Roche) and data were analyzed using the Qiagen Data Analysis Centre and Graph Pad (Prism).
Quiagen RT^2 software was used to analyze all the samples from different groups. To be able to generate heatmaps and graph on fold change including error bars, the data have been analyzed manually with Graph Pad (Prism) when the Quiagen RT^2 software gave significant results between the different groups. For IFN type 1 response 1 mg/kg 48, 72 h and 3 mg/kg 48 h, were analyzed manually. For EMT, 1 mg/kg 48, 72 h, 3 mg/kg 72 h. When the data have been analyzed manually, the results are presented as histograms of mRNA fold changes. For the time points and doses analyzed by the software, the results are presented as tables.
GraphPadPrism was used to generate the heat maps, graphs with mRNA fold change, and to make the statistics. Multiple TTests, paired were performed on ΔΔ Ct values.
The expression of type I IFN related genes (ISG) was assessed in tumors collected 24, 48 and 72 hours after i.t. doxorubicin treatment. 3 groups were compared per timepoint: bemcentinib (bern), doxorubicin only (dox) and doxorubicin combined with bemcentinib (doxbern), the fold changes were compared with the control groups injected with PBS, and the fold change was 1 for the control groups.

[4] = system: 4T1 cells; experiment: qRTPCR of IFN related genes in 4T1 cells in vitro (Example 4); format: cell-based, mouse; conditions: with or without bemcentinib
[5] = system: Yumm1.7 cells; experiment: qRTPCR of IFN related genes in Yumm1.7 cells in vitro (Example 4); format: cell-based, mouse; conditions: Yumm1.7 cells; DMXAA treatment; 13 ISG tested
[6] = system: 4T1 mammary carcinoma cells; experiment: Tumor growth, 4T1 model (Example 2); set-up: species or system Balb/c mice; conditions: short in vivo study, single i.t. injection day 15
Method: Tumor growth was measured with a digital handheld caliper twice weekly from emergence of tumor and until the day of euthanasia

[7] = system: 43 mouse cytokines; experiment: Plasma cytokines, ProcartaPlex Multiplex Immunoassay (Luminex) (Example 2); format: in vivo, Balb/c mice; conditions: DMXAA, 48 h post injection, treated groups
Method: The manufacturer user guide was followed. The samples were analyzed by (MAGPIX) and the results were obtained as concentration in pg/ml of mouse plasma. At least 3 samples per group, 4 for many, were analyzed.

[8] = in the presence of bemcentinib, read-out: IC50 with bem
[9] = Mus musculus, LL/2, read-out: IC50 without bem

N.N.[Cl][Pt][Cl] [Cisplatin, cisplatin]
ISGs upregulated compared to control (number) ([1]; cisplatin 5 uM, 48 hours): 11 | IC50 [2, 8]: 4650 nM | IC50 ([2]; read-out: IC50 without bem): 6190 nM

Cc1ccc2c(=O)c3cccc(CC(=O)O)c3oc2c1C [DMXAA, 5,6-Dimethylxanthenone-4-acetic Acid]
ISG upregulated compared to control (number) ([1]; DMXAA 25 ug/ml, 48 hours): 20 | ISG significantly upregulated compared to control (number) ([3]; 24 hours after DMXAA i.t. treatment): 8 | ISG upregulated (number) ([3]; 48 hours after DMXAA injection): 1 | IFN response after DMXAA stimulation [4]: No significant changes | ISG upregulated (number) [5]: 4 | Tumor growth [6]: decreased tumor growth | Cytokines with different concentration compared with controls (number) [7]: 8 | IC50 without bem [2]: No effect | IC50 with bem ([2]; in the presence of bemcentinib): No effect

CC(=O)O[C@@]12CO[C@@H]1C[C@H](O)[C@@]1(C)C(=O)[C@H](O)C3=C(C)[C@@H](OC(=O)[C@H](O)[C@@H](NC(=O)OC(C)(C)C)c4ccccc4)C[C@@](O)([C@@H](OC(=O)c4ccccc4)[C@H]21)C3(C)C [Docetaxel, docetaxel]
ISG significantly upregulated compared to control (number) ([1]; docetaxel 5 nM): 2 | IC50 [2, 9]: 14.1 nM | IC50 [2, 8]: 7.26 nM

CCC1=C[C@@H]2CN(C1)Cc1c([nH]c3ccccc13)[C@@](C(=O)OC)(c1cc3c(cc1OC)N(C)[C@H]1[C@@](O)(C(=O)OC)[C@H](OC(C)=O)[C@]4(CC)C=CCN5CC[C@]31[C@@H]54)C2 [Navelbine, vinorelbine]
ISG upregulated (number) ([1]; navelbine 1 nM, 48 hours): Four | IC50 [2, 9]: 10.1 nM | IC50 [2, 8]: 0.752 nM

Source: patent US20230372337A1, “Combination Therapy Comprising an AXL Inhibitor” (BERGENBIO ASA, priority 2020, published 2023)
